From patent publication US8835648B2, “Hedgehog pathway antagonists and therapeutic applications thereof” (Siena Biotech S.p.A., priority 2009, dated 2014)

Legend:
[1] = system: 293FlpIN/clone E-3 mock transfected cells; experiment: Bodipy-Cyclopamine specific binding curve, mock transfected cell line clone E-3; conditions: stable mock transfected cell line clone E-3
Smo receptor = molecular target: T1, Smo receptor (Homo sapiens, UniProt Q99835); experiment: Bodipy-Cyclopamine specific binding curve, Smo-FLAG transfected cell line clone 3-5; conditions: stable Smo-FLAG transfected cell line clone 3-5
T1 construct: expressed in transfected cells; template pCMV6-XL5-Smo, Origene cat; TC122724
T1 sequence (Q99835 28-787): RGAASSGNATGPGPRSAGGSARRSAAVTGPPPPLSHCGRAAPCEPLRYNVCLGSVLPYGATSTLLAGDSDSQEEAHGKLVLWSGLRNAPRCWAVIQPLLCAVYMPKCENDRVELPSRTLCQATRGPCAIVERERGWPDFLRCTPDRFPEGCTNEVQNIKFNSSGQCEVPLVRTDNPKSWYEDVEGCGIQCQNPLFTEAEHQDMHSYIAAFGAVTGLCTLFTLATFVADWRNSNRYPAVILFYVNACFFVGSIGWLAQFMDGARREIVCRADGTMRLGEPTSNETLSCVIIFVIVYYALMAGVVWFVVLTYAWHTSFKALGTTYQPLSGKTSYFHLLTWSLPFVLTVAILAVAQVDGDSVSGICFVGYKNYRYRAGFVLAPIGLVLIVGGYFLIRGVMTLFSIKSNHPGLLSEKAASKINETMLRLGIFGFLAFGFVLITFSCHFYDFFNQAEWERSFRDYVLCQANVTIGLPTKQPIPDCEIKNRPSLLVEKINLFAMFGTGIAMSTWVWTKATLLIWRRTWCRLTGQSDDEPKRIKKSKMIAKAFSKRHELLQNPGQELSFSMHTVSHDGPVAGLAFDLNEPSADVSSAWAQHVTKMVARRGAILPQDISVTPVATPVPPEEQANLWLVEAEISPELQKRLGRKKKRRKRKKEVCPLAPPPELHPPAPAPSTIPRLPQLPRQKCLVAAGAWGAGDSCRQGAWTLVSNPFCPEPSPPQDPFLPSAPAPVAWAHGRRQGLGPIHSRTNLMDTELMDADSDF

CC1=C2CC3C(CC=C4C[C@@H](O)CCC43C)C2CCC12O[C@@H]1CC(C)CN(CCNC(=O)CCCCCNC(=O)CCC3=[N+]4C(=Cc5c(C)cc(C)n5[B-]4(F)F)C=C3)C1C2C (some centres unmarked) [Bodipy-Cyclopamine]
Kd [1]: 115 nM | Kd (Smo receptor): 44.3 nM
